{"source": "patent US11672817B2", "about": "“Maltosyl-Isomaltooligosaccharides” (ISOThrive Inc., priority 2016, dated 2023)", "key": {"[1]": {"tested_on": "Weissella viridescens NRRL B-1951", "assay": "W. viridescens culture absorbance (growth) with nisin", "type": "cell-based", "design": "key to Corrected ABS 610rs: A600 minus background absorbance taken just after inoculation", "settings": "for 91516 ABS 610f: final absorbance, uncorrected", "method": "Purified nisin A and Z are commercially available and were acquired from Handary S. A. (Brussels Belgium). Certificates of analysis for each lot indicated purities of 95.2 and 99.6% for nisin A and Z, respectively.\n100 g De-Man, Rogosa and Sharpe (MRS) media was prepared in a 500 mL Erlenmeyer to contain 5.5% solids in deionized water (18.2 MS2, Hydro Service and Supplies, Gaithersburg, Md.). The media was autoclaved (121° C. 15 min), cooled, and inoculated with 1 mL (0.5 mL culture+0.5 mL glycerol, 40%; frozen at −78° C.) of Weissella viridescens NRRL B-1951 (test strain). The culture was incubated at 31° C. overnight (15 Hr).\nThe next day, stock solutions of either nisin A or Z were prepared in deionized water to contain 31.3 and 33.7 μg/g of each peptide.\n(§1) 100 g MRS media was prepared to contain 5.5% solids. Two sets (one set each for nisin A and nisin Z) of eight Hach-type tubes (Kimble Chase 45066-16100) were prepared. Within each set, in order was added 5.00, 4.95, 4.90, 4.75, 4.50, 4.00, 3.50 and 3.00 g MRS media. The tubes were sealed and autoclaved.\n(§2) To each tube was added, of the appropriate nisin stock, 0.00, 0.05, 0.10, 0.25, 0.50, 1.00, 1.50, and 2.00 g. Each tube was inoculated with 0.25 g of late-log W. viridescens NRRL B-1951 culture. The tubes were sealed and the absorbance at 600 nm was quickly measured (Hach DR900). The tubes were segregated by set and incubated at 31° C. overnight (15 Hr).\nEach tube was thoroughly mixed to suspend settled cells and the absorbance was measured again at 600 nm. The final absorbance values for each sample were corrected for their respective background (taken just after inoculation, scattered light from added cells). The corrected absorption values were a measure of W. viridescens growth. The corrected values were plotted against nisin concentration and minimum inhibiting concentration approximated via regression."}, "[2]": {"tested_on": "Weissella viridescens NRRL B-1951", "assay": "HPLC of culture supernatants: consumption of glucose and production of organic acids with nisin", "type": "cell-based", "settings": "for acetic acid in the fermentation media: MRS media originally contained 7% acetate", "method": "as §1, §2\nEach tube was sampled (1.5 mL conical polypropylene centrifuge tubes) and centrifuged at 10 kRPM for 10 minutes to remove and suspended cells. The resulting supernatants were filtered (0.2 μm nylon), diluted to 0.5% solids, and analyzed by high pressure liquid chromatography (HPLC, Agilent 1100, refractive index detector and BioRad Ainex HPX-87H column) for consumption of glucose and production of organic acids. The following table illustrates the concentration of sugars such as glucose and production of organic acids during the incubation.\nNote that the MRS media originally contained 7% acetate; therefore 7% should be subtracted from the values for acetate in the above table to ascertain the amount of acetate generated during the assay."}}, "note": "No end group written: not given here.", "data": [{"substance": "nisin A (ITSISLCTPGCKTGALMGCNMKTATCHCSIHVSK; not fully specified (residues 2, 5, 33, bridges); also: lantibiotic (thioether rings, dehydrated residues not placed); UniProt P13068 24-57, looked up) [Purified nisin A, commercially available, acquired from Handary S. A; purity 95.2%; bacteriocin peptide]", "values": [{"measurement": "inhibition of bacterial growth", "setting": "[1]", "value": "can effectively inhibit"}, {"measurement": "91516 ABS 610f", "setting": "[1]; nisin A 0.33 μg/g (tube A2)", "value": 1.568}, {"measurement": "91516 ABS 610f", "setting": "[1]; nisin A 0.68 μg/g (tube A3)", "value": 1.531}, {"measurement": "91516 ABS 610f", "setting": "[1]; nisin A 1.38 μg/g (tube A4)", "value": 1.334}, {"measurement": "91516 ABS 610f", "setting": "[1]; nisin A 3.08 μg/g (tube A5)", "value": 0.911}, {"measurement": "91516 ABS 610f", "setting": "[1]; nisin A 5.97 μg/g (tube A6)", "value": 0.536}, {"measurement": "91516 ABS 610f", "setting": "[1]; nisin A 8.86 μg/g (tube A7)", "value": 0.403}, {"measurement": "91516 ABS 610f", "setting": "[1]; nisin A 11.87 μg/g (tube A8)", "value": 0.361}, {"measurement": "Corrected ABS 610rs", "setting": "[1]; nisin A 0.33 μg/g (tube A2)", "value": 1.106}, {"measurement": "Corrected ABS 610rs", "setting": "[1]; nisin A 0.68 μg/g (tube A3)", "value": 1.063}, {"measurement": "Corrected ABS 610rs", "setting": "[1]; nisin A 1.38 μg/g (tube A4)", "value": 0.868}, {"measurement": "Corrected ABS 610rs", "setting": "[1]; nisin A 3.08 μg/g (tube A5)", "value": 0.473}, {"measurement": "Corrected ABS 610rs", "setting": "[1]; nisin A 5.97 μg/g (tube A6)", "value": 0.116}, {"measurement": "Corrected ABS 610rs", "setting": "[1]; nisin A 8.86 μg/g (tube A7)", "value": 0.001}, {"measurement": "Corrected ABS 610rs", "setting": "[1]; nisin A 11.87 μg/g (tube A8)", "value": 0.001}, {"measurement": "Maltotriose in the fermentation media", "setting": "[2]; nisin A 0.33 μg/g (tube A2)", "value": 0.312, "unit": "%/brix"}, {"measurement": "ethanol in the fermentation media", "setting": "[2]; nisin A 0.33 μg/g (tube A2)", "value": 0.068, "unit": "%/brix"}, {"measurement": "formic acid in the fermentation media", "setting": "[2]; nisin A 0.33 μg/g (tube A2)", "value": 0.263, "unit": "%/brix"}, {"measurement": "fructose in the fermentation media", "setting": "[2]; nisin A 0.33 μg/g (tube A2)", "value": 0.000, "unit": "%/brix"}, {"measurement": "glucose in the fermentation media", "setting": "[2]; nisin A 0.33 μg/g (tube A2)", "value": 23.122, "unit": "%/brix"}, {"measurement": "glycerol in the fermentation media", "setting": "[2]; nisin A 0.33 μg/g (tube A2)", "value": 0.292, "unit": "%/brix"}, {"measurement": "lactic acid in the fermentation media", "setting": "[2]; nisin A 0.33 μg/g (tube A2)", "value": 6.884, "unit": "%/brix"}, {"measurement": "maltose in the fermentation media", "setting": "[2]; nisin A 0.33 μg/g (tube A2)", "value": 0.581, "unit": "%/brix"}, {"measurement": "acetic acid in the fermentation media", "setting": "[2]; nisin A 0.33 μg/g (tube A2)", "value": 7.967, "unit": "%/brix"}, {"measurement": "Maltotriose in the fermentation media", "setting": "[2]; nisin A 1.38 μg/g (tube A4)", "value": 0.298, "unit": "%/brix"}, {"measurement": "ethanol in the fermentation media", "setting": "[2]; nisin A 1.38 μg/g (tube A4)", "value": 0.062, "unit": "%/brix"}, {"measurement": "formic acid in the fermentation media", "setting": "[2]; nisin A 1.38 μg/g (tube A4)", "value": 0.282, "unit": "%/brix"}, {"measurement": "fructose in the fermentation media", "setting": "[2]; nisin A 1.38 μg/g (tube A4)", "value": 0.000, "unit": "%/brix"}, {"measurement": "glucose in the fermentation media", "setting": "[2]; nisin A 1.38 μg/g (tube A4)", "value": 24.138, "unit": "%/brix"}, {"measurement": "glycerol in the fermentation media", "setting": "[2]; nisin A 1.38 μg/g (tube A4)", "value": 0.319, "unit": "%/brix"}, {"measurement": "lactic acid in the fermentation media", "setting": "[2]; nisin A 1.38 μg/g (tube A4)", "value": 5.496, "unit": "%/brix"}, {"measurement": "maltose in the fermentation media", "setting": "[2]; nisin A 1.38 μg/g (tube A4)", "value": 0.815, "unit": "%/brix"}, {"measurement": "acetic acid in the fermentation media", "setting": "[2]; nisin A 1.38 μg/g (tube A4)", "value": 8.219, "unit": "%/brix"}, {"measurement": "Maltotriose in the fermentation media", "setting": "[2]; nisin A 3.08 μg/g (tube A5)", "value": 0.276, "unit": "%/brix"}, {"measurement": "ethanol in the fermentation media", "setting": "[2]; nisin A 3.08 μg/g (tube A5)", "value": 0.094, "unit": "%/brix"}, {"measurement": "formic acid in the fermentation media", "setting": "[2]; nisin A 3.08 μg/g (tube A5)", "value": 0.407, "unit": "%/brix"}, {"measurement": "fructose in the fermentation media", "setting": "[2]; nisin A 3.08 μg/g (tube A5)", "value": 0.000, "unit": "%/brix"}, {"measurement": "glucose in the fermentation media", "setting": "[2]; nisin A 3.08 μg/g (tube A5)", "value": 24.698, "unit": "%/brix"}, {"measurement": "glycerol in the fermentation media", "setting": "[2]; nisin A 3.08 μg/g (tube A5)", "value": 0.350, "unit": "%/brix"}, {"measurement": "lactic acid in the fermentation media", "setting": "[2]; nisin A 3.08 μg/g (tube A5)", "value": 4.672, "unit": "%/brix"}, {"measurement": "maltose in the fermentation media", "setting": "[2]; nisin A 3.08 μg/g (tube A5)", "value": 0.598, "unit": "%/brix"}, {"measurement": "acetic acid in the fermentation media", "setting": "[2]; nisin A 3.08 μg/g (tube A5)", "value": 8.296, "unit": "%/brix"}, {"measurement": "Maltotriose in the fermentation media", "setting": "[2]; nisin A 5.97 μg/g (tube A6)", "value": 0.288, "unit": "%/brix"}, {"measurement": "ethanol in the fermentation media", "setting": "[2]; nisin A 5.97 μg/g (tube A6)", "value": 0.057, "unit": "%/brix"}, {"measurement": "formic acid in the fermentation media", "setting": "[2]; nisin A 5.97 μg/g (tube A6)", "value": 0.280, "unit": "%/brix"}, {"measurement": "fructose in the fermentation media", "setting": "[2]; nisin A 5.97 μg/g (tube A6)", "value": 0.000, "unit": "%/brix"}, {"measurement": "glucose in the fermentation media", "setting": "[2]; nisin A 5.97 μg/g (tube A6)", "value": 25.304, "unit": "%/brix"}, {"measurement": "glycerol in the fermentation media", "setting": "[2]; nisin A 5.97 μg/g (tube A6)", "value": 0.328, "unit": "%/brix"}, {"measurement": "lactic acid in the fermentation media", "setting": "[2]; nisin A 5.97 μg/g (tube A6)", "value": 2.707, "unit": "%/brix"}, {"measurement": "maltose in the fermentation media", "setting": "[2]; nisin A 5.97 μg/g (tube A6)", "value": 0.941, "unit": "%/brix"}, {"measurement": "acetic acid in the fermentation media", "setting": "[2]; nisin A 5.97 μg/g (tube A6)", "value": 8.143, "unit": "%/brix"}, {"measurement": "Maltotriose in the fermentation media", "setting": "[2]; nisin A 8.86 μg/g (tube A7)", "value": 0.419, "unit": "%/brix"}, {"measurement": "ethanol in the fermentation media", "setting": "[2]; nisin A 8.86 μg/g (tube A7)", "value": 0.055, "unit": "%/brix"}, {"measurement": "formic acid in the fermentation media", "setting": "[2]; nisin A 8.86 μg/g (tube A7)", "value": 0.234, "unit": "%/brix"}, {"measurement": "fructose in the fermentation media", "setting": "[2]; nisin A 8.86 μg/g (tube A7)", "value": 0.000, "unit": "%/brix"}, {"measurement": "glucose in the fermentation media", "setting": "[2]; nisin A 8.86 μg/g (tube A7)", "value": 25.444, "unit": "%/brix"}, {"measurement": "glycerol in the fermentation media", "setting": "[2]; nisin A 8.86 μg/g (tube A7)", "value": 0.299, "unit": "%/brix"}, {"measurement": "lactic acid in the fermentation media", "setting": "[2]; nisin A 8.86 μg/g (tube A7)", "value": 1.521, "unit": "%/brix"}, {"measurement": "maltose in the fermentation media", "setting": "[2]; nisin A 8.86 μg/g (tube A7)", "value": 0.775, "unit": "%/brix"}, {"measurement": "acetic acid in the fermentation media", "setting": "[2]; nisin A 8.86 μg/g (tube A7)", "value": 7.899, "unit": "%/brix"}, {"measurement": "Maltotriose in the fermentation media", "setting": "[2]; nisin A 11.87 μg/g (tube A8)", "value": 0.305, "unit": "%/brix"}, {"measurement": "ethanol in the fermentation media", "setting": "[2]; nisin A 11.87 μg/g (tube A8)", "value": 0.071, "unit": "%/brix"}, {"measurement": "formic acid in the fermentation media", "setting": "[2]; nisin A 11.87 μg/g (tube A8)", "value": 0.233, "unit": "%/brix"}, {"measurement": "fructose in the fermentation media", "setting": "[2]; nisin A 11.87 μg/g (tube A8)", "value": 0.000, "unit": "%/brix"}, {"measurement": "glucose in the fermentation media", "setting": "[2]; nisin A 11.87 μg/g (tube A8)", "value": 25.537, "unit": "%/brix"}, {"measurement": "glycerol in the fermentation media", "setting": "[2]; nisin A 11.87 μg/g (tube A8)", "value": 0.301, "unit": "%/brix"}, {"measurement": "lactic acid in the fermentation media", "setting": "[2]; nisin A 11.87 μg/g (tube A8)", "value": 1.579, "unit": "%/brix"}, {"measurement": "maltose in the fermentation media", "setting": "[2]; nisin A 11.87 μg/g (tube A8)", "value": 0.739, "unit": "%/brix"}, {"measurement": "acetic acid in the fermentation media", "setting": "[2]; nisin A 11.87 μg/g (tube A8)", "value": 8.091, "unit": "%/brix"}]}]}
